Laboratory results published in ChEMBL document CHEMBL5331052, “Discovery of a novel water-soluble, rapid-release triptolide prodrug with improved drug-like properties and high efficacy in human acute myeloid leukemia” (Eur J Med Chem, 2022).
One block for each compound: values may come before it. Activity calls are given as the source filed them. The calls are words filed in the database; no cut-off is given here.

Assays:
[1] = Chemical stability of the compound in water assessed as parent compound remaining at 2 mg/ml measured immediately by HPLC analysis; type: physicochemical; details: read-out: Stability
[2] = Chemical stability of the compound in water assessed as parent compound remaining at 2 mg/ml measured after 4 hrs by HPLC analysis; type: physicochemical; details: read-out: Stability
[3] = Aqueous solubility of compound at 1 to 10 mg/ml by HPLC analysis; type: physicochemical; details: water; dose 1-10 mg/ml
[4] = Prodrug conversion in Sprague-Dawley rat plasma assessed as triptolide release at 50 ug/ml measured after 30 mins by HPLC analysis; type: ADME, cell-free; details: 0.5 h, dose 50 µg/ml
[5] = Prodrug conversion in Sprague-Dawley rat plasma assessed as triptolide release at 500 ng/ml measured after 8 hrs by UPLC-MS/MS analysis; type: ADME, cell-free
[6] = Cmax in Sprague-Dawley rat at 1.0 mg/kg, po administered via oral gavage and measured upto 24 hrs by LC-MS/MS analysis; type: ADME, organism-based; design: dose 1 mg/kg, time < 24 hrs, route po; details: in vivo
[7] = AUC (0 to t) in Sprague-Dawley rat at 1.0 mg/kg, po administered via oral gavage and measured upto 24 hrs by LC-MS/MS analysis; type: ADME, organism-based; design: dose 1 mg/kg, time < 24 hrs, route po; details: in vivo
[8] = test system: THP-1; experiment: Antiproliferative activity against human THP-1 cells assessed as inhibition of cell growth measured after 48 hrs by CCK8 assay; type: functional, cell-based; details: THP-1, 48 h
[9] = Tmax in Sprague-Dawley rat at 1.0 mg/kg, po administered via oral gavage and measured upto 24 hrs by LC-MS/MS analysis; type: ADME, organism-based; details: in vivo
[10] = test system: MV4-11; experiment: Antitumor activity against human MV4-11 cells xenografted in BALB/c nude mouse assessed as tumor growth inhibition at 180 microg/kg/day, IG measured everyday for 11 days relative to control; type: functional; details: MV4-11, po, 264 h, at 180 µg/kg/day, time 11 day, read-out: TGI
[11] = test system: MV4-11; experiment: Antiproliferative activity against human MV4-11 cells assessed as cell growth inhibition measured after 48 hrs by CCK8 assay; type: functional, cell-based; details: MV4-11, 48 h
[12] = Prodrug conversion in human plasma assessed as triptolide release at 1 mg/ml measured after 1.5 hrs by HPLC analysis; type: ADME, cell-free
[13] = Prodrug conversion in human plasma assessed as triptolide release at 50 ug/ml measured after 45 mins by HPLC analysis; type: ADME, cell-free; details: 0.75 h, dose 50 µg/ml
[14] = test system: MV4-11; experiment: Antitumor activity against human MV4-11 cells xenografted in BALB/c nude mouse assessed as tumor growth inhibition at 0.5 mg/kg, po measured once every 2 days for 20 days relative to control; type: functional; details: MV4-11, 480 h, time 20 day, read-out: TGI
[15] = test system: MV4-11; experiment: Antitumor activity against human MV4-11 cells xenografted in BALB/c nude mouse assessed as tumor growth inhibition at 1 mg/kg, po measured once every 2 days for 20 days relative to control; type: functional; details: MV4-11, 480 h, time 20 day, read-out: TGI
[16] = Toxicity in BALB/c nude mouse xenografted with human THP-1 cells assessed as animal death at 2.4 to 4.8 mg/kg, ip qd measured after 2 to 3 days; type: organism-based; details: in vivo, dose lower 2.4 mg/kg, time lower 2 day, dose upper 4.8 mg/kg, time upper 3 day
[17] = test system: MV4-11; experiment: Antiproliferative activity against human MV4-11 cells assessed as cell growth inhibition measured after 24 hrs by Edu incorporation assay; type: functional, cell-based
[18] = Prodrug conversion in Sprague-Dawley rat plasma assessed as triptolide release at 500 ng/ml measured after 1 hrs by UPLC-MS/MS analysis; type: ADME, cell-free
[19] = test system: MV4-11; experiment: Potency index, ratio of test compound IC50 to triptolide IC50 for antiproliferative activity against human MV4-11 cells assessed as inhibition of cell growth measured after 48 hrs by CCK8 assay; type: functional
[20] = test system: MV4-11; experiment: Antitumor activity against human MV4-11 cells xenografted in BALB/c nude mouse assessed as cell growth inhibition by measuring effect on Ki67 protein expression in tumor at 50 microg/kg, ip administered for 20 days in presence of gilteritinib by immunohistochemical analysis; type: functional, organism-based; details: dose 50.0 µg/kg, time 20.0 day
[21] = test system: THP-1; experiment: Antitumor activity against human THP-1 cells xenografted in BALB/c nude mouse assessed as induction of apoptosis by measuring increase in cleaved caspase-3 level in tumor at 0.1 mg/kg, ip administered daily and measured after 28 days by immunohistochemical staining based analysis; type: functional, organism-based; details: time 28.0 day
[22] = test system: THP-1; experiment: Potency index, ratio of test compound IC50 to triptolide IC50 for antiproliferative activity against human THP-1 cells assessed as inhibition of cell growth measured after 48 hrs by CCK8 assay; type: functional
[23] = Prodrug conversion in human plasma assessed as triptolide release at 500 ng/ml measured after 1 hrs by UPLC-MS/MS analysis; type: ADME, cell-free
[24] = Toxicity in BALB/c nude mouse xenografted with human THP-1 cells assessed as change in body weight at 0.1 to 1.2 mg/kg, ip qd measured every 2 days for 28 days; type: organism-based; details: in vivo, 672 h, dose 0.1-1.2 mg/kg, time 28 day
[25] = test system: MV4-11; experiment: Antitumor activity against human MV4-11 cells xenografted in ip dosed BALB/c nude mouse assessed as induction of apoptosis by measuring increase in cleaved caspase-3 level in tumor administered daily and measured after 28 days by immunohistochemical staining based analysis; type: functional, organism-based; details: dose 25-50 µg/kg, time 28.0 day
[26] = Prodrug conversion in human plasma assessed as triptolide release at 1 mg/ml measured after 1 hrs by HPLC analysis; type: ADME, cell-free
[27] = test system: MV4-11; experiment: Antitumor activity against human MV4-11 cells xenografted in ip dosed BALB/c nude mouse assessed as cell growth inhibition by measuring effect on Ki67 protein expression in tumor administered daily and measured after 28 days by immunohistochemical analysis; type: functional, organism-based; details: dose 25-50 µg/kg, time 28.0 day
[28] = test system: PBMC; experiment: Cytotoxicity against human PBMC cells assessed as cell survial at 30 to 300 nM measured after 48 hrs by CCK8 assay; type: toxicity, cell-based; details: 0.3 µM, dose 30-300 nM
[29] = test system: MV4-11; experiment: Antitumor activity against human MV4-11 cells xenografted in BALB/c nude mouse assessed as induction of apoptosis by measuring caspase-3 level in tumor at 50 microg/kg, ip administered for 20 days in presence of gilteritinib by immunohistochemical analysis; type: functional, organism-based; details: dose 50.0 µg/kg, time 20.0 day
[30] = (§1) Prodrug conversion in human plasma assessed as (5bS,6aS,7aR,8R,8aS,9aS,9bS,10bS)-8a-isopropyl-10b-methyl-3-oxo-1,2,3,5,5b,6,6a,8,8a,9a,9b,10b-dodecahydrotris(oxireno [2',3':4b,5;2'',3'':6,7;2''',3''':8a,9]phenanthro[1,2-c]furan-8-yl 2-hydroxyacetate intermediate formation by HPLC analysis; type: ADME, cell-free
[31] = test system: MV4-11; experiment: Antitumor activity against human MV4-11 cells xenografted in BALB/c nude mouse assessed as tumor growth inhibition at 50 microg/kg, ip administered for 20 days in presence of gilteritinib and measured every 2 days relative to control; type: functional; details: MV4-11, 480 h, dose 50 µg/kg, time 20 day, read-out: TGI
[32] = as §1, with “formation measured after 1 hr” for “formation”; type: ADME, cell-free
[33] = test system: THP-1; experiment: Antiproliferative activity against human THP-1 cells assessed as cell growth inhibition measured after 24 hrs by Edu incorporation assay; type: functional, cell-based; details: dose 30-120 nM
[34] = Toxicity in BALB/c nude mouse xenografted with human MV4-11 cells assessed as change in body weight at 180 microg/kg/day, IG measured everyday for 11 days; details: in vivo, po, 264 h, dose 180 µg/kg/day, time 11 day
[35] = test system: THP-1; experiment: Antitumor activity against human THP-1 cells xenografted in BALB/c nude mouse assessed as complete tumor regression at 300 microg/kg, ip qd measured every 2 days for 16 days; type: functional, organism-based; details: dose 300.0 µg/kg, time 16.0 day
[36] = test system: MV4-11; experiment: Antitumor activity against human MV4-11 cells xenografted in BALB/c nude mouse assessed as complete tumor regression at 100 microg/kg, ip qd measured every 2 days for 12 days; type: functional, organism-based; details: dose 100.0 µg/kg, time 12.0 day
[37] = test system: MV4-11; experiment: Antitumor activity against human MV4-11 cells xenografted in BALB/c nude mouse assessed as tumor growth inhibition at 25 microg/kg, ip qd measured every 2 days for 28 days relative to control; type: functional; details: MV4-11, 672 h, dose 25 µg/kg, time 28 day, read-out: TGI
[38] = test system: THP-1; experiment: Antitumor activity against human THP-1 cells xenografted in BALB/c nude mouse assessed as tumor growth inhibition at 100 microg/kg, ip qd measured every 2 days for 28 days relative to control; type: functional; details: THP-1, 672 h, dose 100 µg/kg, time 28 day, read-out: TGI
[39] = test system: THP-1; experiment: Antitumor activity against human THP-1 cells xenografted in BALB/c nude mouse assessed as cell growth inhibition by measuring effect on Ki67 protein expression in tumor at 0.1 mg/kg, ip administered daily and measured after 28 days by immunohistochemical analysis; type: functional, organism-based; details: time 28.0 day
[40] = Microsomal stability in rat liver microsomes assessed as half life; type: ADME, Microsome
[41] = Microsomal stability in rat liver microsomes assessed as intrinsic clearance; type: ADME, Microsome; details: read-out: CLH
[42] = test system: MV4-11; experiment: Antitumor activity against human MV4-11 cells xenografted in BALB/c nude mouse assessed as tumor growth inhibition at 300 microg/kg/day, IG measured everyday for 11 days relative to control; type: functional; details: MV4-11, po, 264 h, at 300 µg/kg/day, time 11 day, read-out: TGI
[43] = Prodrug conversion in human plasma assessed as triptolide release at 50 to 5000 ng/ml measured for 1 hrs by HPLC analysis; type: ADME, cell-free; details: dose 50-5000 ng/ml
[44] = Microsomal stability in rat liver microsomes assessed as hepatic clearance; type: ADME, Microsome
[45] = Prodrug conversion in Sprague-Dawley rat plasma assessed as triptolide release at 500 ng/ml measured after 1.5 hrs by UPLC-MS/MS analysis; type: ADME, cell-free

remaining at 0 h, 2 mg/ml [1]: 96.8%
remaining at 4 h, 2 mg/ml [2]: 96.7%
solubility [3]: 3820 µg/mL
Drug metabolism [4]: Metabolite_Detected
SMILES: CC(C)[C@]12O[C@H]1[C@@H]1O[C@]13[C@]1(O[C@H]1C[C@H]1C4=C(CC[C@@]13C)C(=O)OC4)[C@@H]2OC(=O)COC(=O)CN1CCN(C)CC1.Cl

SMILES: CC(C)[C@]12O[C@H]1[C@@H]1O[C@]13[C@]1(O[C@H]1C[C@H]1C4=C(CC[C@@]13C)C(=O)OC4)[C@@H]2OCOP(=O)([O-])[O-].[Na+].[Na+] [MINNELIDE]
Drug metabolism [5]: Metabolite_Detected

SMILES: CC(C)[C@]12O[C@H]1[C@@H]1O[C@]13[C@]1(O[C@H]1C[C@H]1C4=C(CC[C@@]13C)C(=O)OC4)[C@@H]2O [TRIPTOLIDE]
Cmax [6]: 15.9 ng/mL
AUC(0-t) at 24 h [7]: 31.9 ng·h/mL
IC50 [8]: 7.04 nM
Tmax [9]: 26.4 min
inhibition in vivo at 0.18 mg/kg/day [10]: 91.5%
IC50 [11]: 12 nM

remaining at 0 h, 2 mg/ml [1]: 95%
remaining at 4 h, 2 mg/ml [2]: 94.8%
Drug metabolism [12]: Metabolite_Detected
solubility [3]: 7490 µg/mL
Drug metabolism [13]: Metabolite_Detected
Drug metabolism [4]: Metabolite_Detected
SMILES: CC(C)[C@]12O[C@H]1[C@@H]1O[C@]13[C@]1(O[C@H]1C[C@H]1C4=C(CC[C@@]13C)C(=O)OC4)[C@@H]2OC(=O)CCCOC(=O)CN1CCOCC1.Cl

SMILES: CCc1nc(C(N)=O)c(Nc2ccc(N3CCC(N4CCN(C)CC4)CC3)c(OC)c2)nc1NC1CCOCC1 [GILTERITINIB]
inhibition in vivo at 0.5 mg/kg [14]: 48.3%
inhibition in vivo at 1 mg/kg [15]: 72%

SMILES: CC(C)[C@]12O[C@H]1[C@@H]1O[C@]13[C@]1(O[C@H]1C[C@H]1C4=C(CC[C@@]13C)C(=O)OC4)[C@@H]2OC(=O)COC(=O)CN1CCOCC1.Cl
remaining at 0 h, 2 mg/ml [1]: 99.4%
Activity [16]: Toxic
Activity [17]: Dose-Dependent Effect
Drug metabolism [18]: Metabolite_Detected
Ratio IC50 [19]: 2
Activity [20]: Active
Activity [21]: Active
remaining at 4 h, 2 mg/ml [2]: 99.1%
Ratio IC50 [22]: 2
Drug metabolism [23]: Metabolite_Detected
Activity [24]: Non-Toxic
IC50 [8]: 14.8 nM
Activity [25]: Dose-Dependent Effect
Drug metabolism [26]: Metabolite_Detected
Activity [27]: Dose-Dependent Effect
Activity [28]: Non-Toxic
Activity [29]: Active
Drug metabolism [30]: Metabolite_Detected
inhibition in vivo at 0.05 mg/kg [31]: 78.1%
Drug metabolism [32]: Metabolite_Notdetected
Activity [33]: Dose-Dependent Effect
Activity [34]: Non-Toxic
Activity [35]: Active
Activity [36]: Active
inhibition in vivo at 0.025 mg/kg [37]: 54.3%
inhibition in vivo at 0.1 mg/kg [38]: 93.9%
solubility [3]: 6130 µg/mL
Activity [39]: Active
Drug metabolism [13]: Metabolite_Detected
half-life [40]: 8.64 min
IC50 [11]: 46 nM
CLint scaled [41]: 288 mL/min/kg
inhibition in vivo at 0.3 mg/kg/day [42]: 93.5%
Drug metabolism [43]: Metabolite_Detected
Drug metabolism [4]: Metabolite_Detected
CLhep predicted [44]: 65.6 mL/min/kg

SMILES: CC(C)[C@]12O[C@H]1[C@@H]1O[C@]13[C@]1(O[C@H]1C[C@H]1C4=C(CC[C@@]13C)C(=O)OC4)[C@@H]2OC(=O)CCC(=O)[O-].[Na+] [OMTRIPTOLIDE SODIUM]
Drug metabolism [45]: Metabolite_Detected
